Experimental data as given in the NIST ThermoML archive (doi:10.1021/je400082c).

Conditions: Liquid

CCC(O)CO (centres undefined) [1,2-butanediol]
Conditions | vapor or sublimation pressure [kPa]
372.06 K | 1.89
382.61 K | 3.33
390.52 K | 4.96
395.55 K | 6.36
399.56 K | 7.66
402.61 K | 8.81
405.13 K | 9.9
405.42 K | 10
408.5 K | 11.39
413.34 K | 14.09
418.29 K | 17.27
421.49 K | 19.63
424.91 K | 22.54
427.57 K | 25.06
429.92 K | 27.24
432.76 K | 30.39
435.37 K | 33.36
438.52 K | 37.3
439.97 K | 39.3
441.78 K | 41.9
443.55 K | 44.75

OCCO [1,2-ethanediol]
Conditions | vapor or sublimation pressure [kPa]
386.15 K | 3.92
389.12 K | 4.51
389.95 K | 4.78
390.75 K | 4.89
395.25 K | 6.08
400.78 K | 7.87
402.15 K | 8.37
405.85 K | 9.85
406.09 K | 10
406.25 K | 10.02
409.3 K | 11.42
411.15 K | 12.41
411.85 K | 12.85
413.85 K | 13.85
416.45 K | 15.37

CC(O)CCO (centres undefined) [1,3-butanediol]
Conditions | vapor or sublimation pressure [kPa]
387.75 K | 2.43
395.13 K | 3.6
402.05 K | 5.03
406.61 K | 6.26
411.11 K | 7.72
413.41 K | 8.54
416.91 K | 10
418.03 K | 10.48
420.85 K | 11.87
422.04 K | 12.54
425.8 K | 14.63
427.74 K | 15.84
429.75 K | 17.09
433.71 K | 19.96
436.29 K | 22.24
439.65 K | 25.3
442.45 K | 28.15
444.75 K | 30.78
447.01 K | 33.36
449.8 K | 36.78
451.7 K | 39.45
453.1 K | 41.39

CC(O)CO (centres undefined) [1,2-propanediol]
Conditions | vapor or sublimation pressure [kPa]
398.23 K, Ebulliometric method (Recirculating still) | 10
